Measured values taken from paper PMC12128972, “TYRA-300, an FGFR3-selective inhibitor, promotes bone growth in two FGFR3-driven models of chondrodysplasia” (JCI Insight, 2025).
Where “and” joins values, the source holds several entries; their conditions need not be identical. Equal values may be shown once.

Assays:
[1] = test system: femurs of Fgfr3^Y367C/+ mice; assay: Fgfr3Y367C/+ mice: microCT of femurs (SOC bone volume, BMD, BV/TV); assay type: in vivo, mouse; conditions: 1.2 mg/kg s.c. daily for 15 days
Procedure: Finally, measurements of trabecular bone quality were performed using μCT imaging of the femurs (Supplemental Figure 2).
Femurs were placed in 70% ethanol at 4°C and measured on the Skyscan-1272 (Bruker) with the following parameters: 60 kV, 166 μA, 0.25 mm aluminum filter. Within the femurs, the trabecular parameters were obtained at 5 μm voxel resolution in a ROI (normalized to 7% of the femur length in size) beginning 255 μm proximal to the distal growth plate for controls, 25 μm for Fgfr3^Y367C/+ + vehicle, and 35 μm for Fgfr3^Y367C/+ + TYRA-300. The BMD and BV/TV of the metaphysis were measured using on a set of sections located within the secondary spongiosa under the growth plate. The measured volume was chosen to be proportional to the femur length (typically 630 μm for control animals and 310 μm for Fgfr3^Y367C/+ + vehicle and 415 μm for Fgfr3^Y367C/+ + TYRA-300.) Scan reconstruction was done using NRecon (v 1.7.4.6). Scan orientation was done using DataViewer (v 1.7.0.1). 3D Analysis for trabecular bone was performed using CT Analyzer (v 1.23.0.2).

[2] = Pharmacokinetic study, single subcutaneous dose, plasma by LC-MS/MS; assay type: in vivo, mouse; conditions: for plasma concentration, individual mice: 1.2 mg/kg s.c.
Procedure: The pharmacokinetic profile of TYRA-300 in adult rats has been previously described ([31]). Because the FGFR3-driven skeletal dysplasia models are performed using neonatal mice, an experiment was designed to understand the pharmacokinetics of TYRA-300 at a relevant efficacious dose in male and female mice, ranging from 1 to 12 weeks of age. In this experiment, TYRA-300 plasma levels were measured following administration of a single 1.2 mg/kg subcutaneous dose. […] There was a similar AUCinf in 2-week-old mice (2,295 h × ng/mL). […] Cytochrome P450 enzymes are commonly responsible for the metabolism of TKIs. In mice, cytochrome P450s are not fully developed until the mice are at least 3 weeks of age ([33]), which may explain the higher level of TYRA-300 exposure in the younger mice.
C57BL/6J (The Jackson Laboratory) mice were randomized to treatment groups according to body weight. Owing to the young age of some groups, a mixture of female and male mice was used. Depending on the age of mice, 3–8 mice per group were dosed with a single subcutaneous dose of TYRA-300 (1.2 mg/kg) and then blood was collected either serially at 3 different time points (if 4 weeks of age and older) or terminally at a single time point (if 1–3 weeks of age). Mouse plasma was harvested using lithium heparin tubes at 0.5, 1, 4, 6, 8, 12, and 24 hours after dosing. Compound concentration from plasma was detected using liquid chromatography with tandem mass spectrometry at Oakland Analytics.

[3] = test system: Fgfr3^N534K/+ mouse model of HCH; assay: Fgfr3N534K/+ mice: long bone length; assay type: in vivo
Procedure: To explore the effectiveness of TYRA-300 in an additional model of FGFR3-related chondrodysplasia, TYRA-300 was evaluated in a Tg-CMV^Cre/+/Fgfr3^N534K/+ mouse model of HCH ([42]). This model is driven by the Fgfr3 N534K mutation, which corresponds to the human FGFR3 N540K mutation ([9], [43]). This model closely recapitulates the skeletal phenotype of HCH in humans, with a milder disproportionate short stature phenotype ([42]). […] Because the goal of treatment with TYRA-300 is to […] Fgfr3 signaling levels, Fgfr3^N534K/+ mice were administered a lower dose of 1.8 mg/kg TYRA-300 daily for the full study. Mice were treated for 21 days, from 3 to 24 days of age. Treatment was started at an older age in the HCH model than in the ACH model, as children with HCH are often diagnosed later than children with ACH.
Tg-CMV^Cre/+/Fgfr3^N534K/+ mice were tattooed and assigned to treatment groups within each litter at 3 days of age (wild-type mice, Fgfr3^N534K/+ mice treated with vehicle, or Fgfr3^N534K/+ mice treated with 1.8 mg/kg TYRA-300). TYRA-300 was dissolved in aqueous HCl (3.5 mM) containing 5% DMSO and administered subcutaneously to Fgfr3^N534K/+ mice (n = 9) for 21 days. The vehicle was administered to wild-type (n = 12) or Fgfr3^N534K/+ mice (n = 11) for 21 days. Subcutaneous administration was used for this study rather than oral gavage due to the size of the mice. Clinical observations, nasoanal length, and tail length measurements were performed every 3 days, and body weights were collected daily.
Whole body x-ray images were taken of all animals by Faxitron specimen radiography MX-20 (Faxitron X-Ray LLC) following terminal sacrifice. The length of the L4–L6 lumbar vertebra segment was also measured for each animal using calipers, and the height of the L5 vertebral body was measured from Alcian blue/Sirius red images. Long bones and the skull were then excised, and their dimensions were measured using calipers (VWRi819-0013, VWR International). The transverse and sagittal diameters of the foramen magnum were also measured using calipers for the Fgfr3^Y367/+ model, and measured using the μCT images for the Fgfr3^N534K/+ model.

[4] = 1.2 mg/kg single s.c., 1-week-old mice
[5] = 1.8 mg/kg daily s.c. for 21 days, 3 to 24 days of age
[6] = Fgfr3N534K/+ mice + TYRA-300, individual animal values, in mm (unit assumed)

plasma concentration, individual mice ([2]; 1 week old, 12 h, LLOQ 4 ng/mL): 37.7 ng/mL and 35.7 ng/mL and 49.1 ng/mL
plasma concentration, individual mice ([2]; 1 week old, 24 h, LLOQ 4 ng/mL): 4 ng/mL (2×) and 5.11 ng/mL
plasma concentration, individual mice ([2]; 1 week old, time 0 h, LLOQ 4 ng/mL): 4 ng/mL
plasma concentration, individual mice ([2]; 2 weeks old, 0.5 h, LLOQ 8 ng/mL): 276 ng/mL and 247 ng/mL and 312 ng/mL
plasma concentration, individual mice ([2]; 2 weeks old, 1 h, LLOQ 8 ng/mL): 442 ng/mL and 320 ng/mL and 190 ng/mL
plasma concentration, individual mice ([2]; 2 weeks old, 4 h, LLOQ 8 ng/mL): 196 ng/mL and 308 ng/mL and 157 ng/mL
plasma concentration, individual mice ([2]; 2 weeks old, 6 h, LLOQ 8 ng/mL): 148 ng/mL and 144 ng/mL and 232 ng/mL
plasma concentration, individual mice ([2]; 2 weeks old, 8 h, LLOQ 8 ng/mL): 50.3 ng/mL and 95.4 ng/mL and 202 ng/mL
plasma concentration, individual mice ([2]; 2 weeks old, 12 h, LLOQ 8 ng/mL): 42.2 ng/mL and 29.1 ng/mL and 34.4 ng/mL
plasma concentration, individual mice ([2]; 2 weeks old, 24 h, LLOQ 8 ng/mL): 8 ng/mL and 10.2 ng/mL and 8.27 ng/mL
plasma concentration, individual mice ([2]; 2 weeks old, time 0 h, LLOQ 8 ng/mL): 8 ng/mL
plasma concentration, individual mice ([2]; 3 weeks old, 6 h, LLOQ 8 ng/mL): 8 ng/mL (3×) and 15 ng/mL
plasma concentration, individual mice ([2]; 3 weeks old, 8 h, LLOQ 8 ng/mL): 8 ng/mL
plasma concentration, individual mice ([2]; 3 weeks old, 12 h, LLOQ 8 ng/mL): 8 ng/mL (3×) and 9.31 ng/mL
plasma concentration, individual mice ([2]; 3 weeks old, 24 h, LLOQ 8 ng/mL): 8 ng/mL
plasma concentration, individual mice ([2]; 3 weeks old, time 0 h, LLOQ 8 ng/mL): 8 ng/mL
plasma concentration, individual mice ([2]; 4 weeks old, 4 h, LLOQ 8 ng/mL): 39 ng/mL and 12 ng/mL (2×) and 10 ng/mL
plasma concentration, individual mice ([2]; 4 weeks old, 6 h, LLOQ 8 ng/mL): 8 ng/mL (3×) and 16 ng/mL
plasma concentration, individual mice ([2]; 4 weeks old, 8 h, LLOQ 8 ng/mL): 8 ng/mL
plasma concentration, individual mice ([2]; 4 weeks old, 12 h, LLOQ 8 ng/mL): 8 ng/mL
plasma concentration, individual mice ([2]; 4 weeks old, 24 h, LLOQ 8 ng/mL): 8 ng/mL
plasma concentration, individual mice ([2]; 4 weeks old, time 0 h, LLOQ 8 ng/mL): 8 ng/mL
plasma concentration, individual mice ([2]; 6 weeks old, time 0 h, LLOQ 8 ng/mL): 8 ng/mL
AUCinf of 3- through 12-week-old mice, times lower than average of 1- and 2-week-old mice ([2]; 1.2 mg/kg single s.c.): about 3.8 times
maximum observed concentration [2, 4]: 287 ng/mL
mean AUCinf [2, 4]: 1,789 h*ng/mL
mean AUCinf ([2]; 1.2 mg/kg single s.c., 2-week-old mice): 2,295 h*ng/mL
average AUCinf ([2]; 1.2 mg/kg single s.c., 3- through 12-week-old mice): 538 ng·h/mL
SMILES: C[C@@H](Oc1ccc2[nH]nc(-c3ccc(N4CC5(C4)CN(S(C)(=O)=O)C5)nc3)c2c1)c1c(Cl)cncc1Cl [TYRA-300]
bone volume of the SOC (microCT) vs vehicle [1]: significant increase
increase in bone mineral density (BMD) vs vehicle ([1]; femoral metaphyses): 21.4%
increase in bone volume-to-tissue volume ratio (BV/TV) vs vehicle ([1]; femoral metaphyses): 73.3%
plasma concentration, individual mice ([2]; 3 weeks old, 0.5 h, LLOQ 8 ng/mL): 250 ng/mL and 248 ng/mL and 229 ng/mL and 221 ng/mL
plasma concentration, individual mice ([2]; 3 weeks old, 1 h, LLOQ 8 ng/mL): 293 ng/mL and 238 ng/mL and 250 ng/mL and 251 ng/mL
plasma concentration, individual mice ([2]; 3 weeks old, 4 h, LLOQ 8 ng/mL): 10.2 ng/mL and 12.5 ng/mL and 17.9 ng/mL and 9.9 ng/mL
plasma concentration, individual mice ([2]; 4 weeks old, 0.5 h, LLOQ 8 ng/mL): 102 ng/mL and 115 ng/mL and 172 ng/mL and 145 ng/mL and 197 ng/mL
plasma concentration, individual mice ([2]; 4 weeks old, 1 h, LLOQ 8 ng/mL): 169 ng/mL and 242 ng/mL and 178 ng/mL and 48 ng/mL
plasma concentration, individual mice ([2]; 6 weeks old, 0.5 h, LLOQ 8 ng/mL): 150 ng/mL and 198 ng/mL and 171 ng/mL and 172 ng/mL
increase in femur length vs vehicle [3, 5]: 3.70%
increase in humerus length vs vehicle [3, 5]: 3.22%
increase in tibia length vs vehicle [3, 5]: 3.75%
increase in ulna length vs vehicle [3, 5]: 5.03%
source data of Figure 4A (sheet "4A"): long bone length, bone not given [3, 6]: 12.31 and 12.55 and 12.375 and 11.91 and 12.485 and 12.9 and 12.58 and 12.185 and 11.555
source data of Figure 4B (sheet "4B"): long bone length, bone not given [3, 6]: 10.06 and 10.16 and 10.36 and 9.8 and 10.2 and 10.18 and 10.1 and 10.15 and 9.47
source data of Figure 4C (sheet "4C"): long bone length, bone not given [3, 6]: 10.705 and 10.605 and 11.015 and 10.35 and 10.8 and 10.795 and 10.61 and 11.13 and 10.195
source data of Figure 4D (sheet "4D"): long bone length, bone not given [3, 6]: 8.28 and 8.42 and 8.455 and 8.1 and 8.32 and 8.43 and 8.22 and 8.35 and 8.08
average normalization of long bone length toward wild-type ([3]; HCH model, 1.8 mg/kg): 25%
